As usually defined, the IC50 is the midpoint of a concentration-inhibition curve.

The target in assay [1] is Tb-labeled inactive PDGFRβ (Homo sapiens (Human), UniProt P09619). Briefly: PDGFRβ LanthaScreen Assay. In kind it is binding. Conditions: read-out: PDGFR Lantha IC50. A general note: Time-resolved FRET reads energy transfer from a long-lived donor to a nearby acceptor.
The next assay deals with VEGFR2, unphosphorylated (Homo sapiens (Human), UniProt P35968). Description: VEGFR ADP GLO Assay. Format: biochemical. For orientation: ADP-Glo first removes unused ATP, then detects ADP through luciferase.
VEGFR2, unphosphorylated, sequence (P35968 20-1356): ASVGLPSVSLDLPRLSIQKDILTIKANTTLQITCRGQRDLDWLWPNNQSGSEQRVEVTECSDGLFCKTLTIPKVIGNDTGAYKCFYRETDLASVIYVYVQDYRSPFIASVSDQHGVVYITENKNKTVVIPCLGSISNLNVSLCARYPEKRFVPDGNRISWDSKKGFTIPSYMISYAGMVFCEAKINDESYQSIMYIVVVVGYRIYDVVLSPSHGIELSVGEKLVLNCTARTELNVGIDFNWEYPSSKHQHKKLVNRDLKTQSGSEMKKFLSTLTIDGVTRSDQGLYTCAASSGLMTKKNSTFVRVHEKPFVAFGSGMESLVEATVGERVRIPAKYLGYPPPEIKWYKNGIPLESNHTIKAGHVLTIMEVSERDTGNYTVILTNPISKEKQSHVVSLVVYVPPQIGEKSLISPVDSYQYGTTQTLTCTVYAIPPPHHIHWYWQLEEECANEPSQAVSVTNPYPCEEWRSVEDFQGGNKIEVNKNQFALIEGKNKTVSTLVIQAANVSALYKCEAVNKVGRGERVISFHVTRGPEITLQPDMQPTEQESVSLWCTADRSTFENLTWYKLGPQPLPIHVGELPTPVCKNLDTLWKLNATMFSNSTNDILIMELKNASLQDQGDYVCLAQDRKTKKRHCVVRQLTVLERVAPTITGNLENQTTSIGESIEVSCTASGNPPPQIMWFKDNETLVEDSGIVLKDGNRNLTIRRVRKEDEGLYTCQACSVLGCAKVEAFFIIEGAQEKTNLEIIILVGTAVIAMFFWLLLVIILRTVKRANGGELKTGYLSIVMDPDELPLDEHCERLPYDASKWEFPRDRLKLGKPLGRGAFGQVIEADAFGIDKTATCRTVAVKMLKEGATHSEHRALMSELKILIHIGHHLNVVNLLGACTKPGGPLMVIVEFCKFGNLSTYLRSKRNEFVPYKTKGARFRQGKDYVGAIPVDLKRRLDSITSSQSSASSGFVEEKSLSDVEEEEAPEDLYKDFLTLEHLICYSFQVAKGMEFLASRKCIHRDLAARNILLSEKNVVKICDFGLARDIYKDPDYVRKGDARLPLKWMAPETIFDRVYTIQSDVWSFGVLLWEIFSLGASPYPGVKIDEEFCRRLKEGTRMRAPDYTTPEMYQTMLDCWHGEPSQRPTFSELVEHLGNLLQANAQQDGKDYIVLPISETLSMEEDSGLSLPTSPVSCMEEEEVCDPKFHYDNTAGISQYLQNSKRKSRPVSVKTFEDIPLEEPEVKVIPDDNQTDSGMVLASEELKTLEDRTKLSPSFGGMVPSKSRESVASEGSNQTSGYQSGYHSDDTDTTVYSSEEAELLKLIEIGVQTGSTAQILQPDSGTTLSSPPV

Tb-labeled inactive PDGFRβ, sequence (P09619 33-1106): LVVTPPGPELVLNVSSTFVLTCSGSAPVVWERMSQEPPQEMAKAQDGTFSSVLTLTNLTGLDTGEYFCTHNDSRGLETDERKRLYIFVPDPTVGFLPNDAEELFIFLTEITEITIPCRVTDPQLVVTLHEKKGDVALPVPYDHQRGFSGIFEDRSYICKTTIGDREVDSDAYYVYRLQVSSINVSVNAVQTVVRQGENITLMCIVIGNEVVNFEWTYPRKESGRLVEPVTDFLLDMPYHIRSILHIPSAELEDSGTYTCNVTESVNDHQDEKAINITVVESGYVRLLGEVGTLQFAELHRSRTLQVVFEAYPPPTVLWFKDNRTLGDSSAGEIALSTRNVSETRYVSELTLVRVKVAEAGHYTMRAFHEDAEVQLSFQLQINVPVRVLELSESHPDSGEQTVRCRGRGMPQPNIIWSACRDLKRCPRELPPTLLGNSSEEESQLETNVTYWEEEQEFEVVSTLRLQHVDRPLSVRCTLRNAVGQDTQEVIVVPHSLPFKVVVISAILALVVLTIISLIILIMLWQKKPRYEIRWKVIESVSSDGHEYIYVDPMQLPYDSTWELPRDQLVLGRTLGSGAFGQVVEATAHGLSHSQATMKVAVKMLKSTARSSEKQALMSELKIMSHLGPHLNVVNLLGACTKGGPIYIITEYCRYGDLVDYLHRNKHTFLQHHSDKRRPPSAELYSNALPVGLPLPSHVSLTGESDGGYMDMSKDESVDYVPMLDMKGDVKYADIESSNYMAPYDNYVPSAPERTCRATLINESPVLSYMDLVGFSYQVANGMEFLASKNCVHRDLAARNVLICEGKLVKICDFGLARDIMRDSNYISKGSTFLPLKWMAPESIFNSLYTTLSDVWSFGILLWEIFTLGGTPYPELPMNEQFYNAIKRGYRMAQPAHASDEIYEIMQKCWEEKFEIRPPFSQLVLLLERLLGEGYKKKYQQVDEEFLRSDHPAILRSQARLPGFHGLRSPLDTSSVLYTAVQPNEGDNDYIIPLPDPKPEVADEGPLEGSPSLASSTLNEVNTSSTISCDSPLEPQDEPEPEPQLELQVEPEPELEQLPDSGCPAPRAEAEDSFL

Take `COc1ncccc1-c1cn2ncc(C(=O)Nc3cc(NC(=O)CN4CCOCC45CCC5)cnc3C)c2s1` [Example 310, N-(5-(2-(8-oxa-5-azaspiro[3.5]nonan-5-yl)acetamido)-2-methylpyridin-3-yl)-2-(2-methoxypyridin-3-yl)pyrazolo[5,1-b]thiazole-7-carboxamide]: the half-maximal inhibitory concentration (IC50) was 1.4 nM in assay [1] and more than 7500 nM at VEGFR2, unphosphorylated.

For `COCCn1cc(-c2cn3ncc(C(=O)Nc4cc(NC(=O)CN5CC(C)(C)C5)cnc4C)c3s2)cn1` [Example 261, N-(5-(2-(3,3-dimethylazetidin-1-yl)acetamido)-2-methylpyridin-3-yl)-2-(1-(2-methoxyethyl)-1H-pyrazol-4-yl)pyrazolo[5,1-b]thiazole-7-carboxamide], the IC50 was 4.9 nM in assay [1] and more than 7500 nM at VEGFR2, unphosphorylated.

In the case of `Cc1ncc(NC(=O)[C@@H]2CCCN3CCCC[C@H]23)cc1NC(=O)c1cnn2cc(-c3cnn(C)c3)sc12` [Example 308, 2-(1-methyl-1H-pyrazol-4-yl)-N-(2-methyl-5-((1R,9aR)-octahydro-2H-quinolizine-1-carboxamido)pyridin-3-yl)pyrazolo[5,1-b]thiazole-7-carboxamide], the 50% inhibitory concentration (IC50) in assay [1] is 710 nM; against VEGFR2, unphosphorylated it was more than 7500 nM.

With `COCCn1cc(-c2cn3ncc(C(=O)Nc4cc(NC(=O)CN5CCC6(CC6)C5)cnc4C)c3s2)cn1` [Example 326, N-(5-(2-(5-azaspiro[2.4]heptan-5-yl)acetamido)-2-methylpyridin-3-yl)-2-(1-(2-methoxyethyl)-1H-pyrazol-4-yl)pyrazolo[5,1-b]thiazole-7-carboxamide], the 50% inhibitory concentration (IC50) is 3.7 nM in assay [1] and more than 7500 nM against VEGFR2, unphosphorylated.

For the compound `Cc1ncc(NC(=O)CN2CC(C)(C)C2)cc1NC(=O)c1cnn2cc(-c3cnn(-c4cccnc4)c3)sc12` [Example 289, N-(5-(2-(3,3-dimethylazetidin-1-yl)acetamido)-2-methylpyridin-3-yl)-2-(1-(pyridin-3-yl)-1H-pyrazol-4-yl)pyrazolo[5,1-b]thiazole-7-carboxamide], the IC50 in assay [1] is 7.1 nM; at VEGFR2, unphosphorylated, more than 7500 nM.

With `Cc1ncc(NC(=O)CN2CC(C)(C)C2)cc1NC(=O)c1cnn2cc(-c3cnn(CC4CC4)c3)sc12` [Example 270, 2-(1-(cyclopropylmethyl)-1H-pyrazol-4-yl)-N-(5-(2-(3,3-dimethylazetidin-1-yl)acetamido)-2-methylpyridin-3-yl)pyrazolo[5,1-b]thiazole-7-carboxamide], the 50% inhibitory concentration (IC50) in assay [1] is 5.4 nM; against VEGFR2, unphosphorylated it was more than 7500 nM.

As for `Cc1ncc(NC(=O)CN2CC(C)(C)C2)cc1NC(=O)c1cnn2cc(-c3cnn(C4CS(=O)(=O)C4)c3)sc12` [Example 262, N-(5-(2-(3,3-dimethylazetidin-1-yl)acetamido)-2-methylpyridin-3-yl)-2-(1-(1,1-dioxidothietan-3-yl)-1H-pyrazol-4-yl)pyrazolo[5,1-b]thiazole-7-carboxamide], the IC50 in assay [1] is 6.1 nM; on VEGFR2, unphosphorylated, more than 7500 nM.

Consider `Cc1ncc(NC(=O)CN2CCCC23COC3)cc1NC(=O)c1cnn2cc(-c3cnn(C)c3)sc12` [Example 20, N-(5-(2-(2-oxa-5-azaspiro[3.4]octan-5-yl)acetamido)-2-methyl-pyridin-3-yl)-2-(1-methyl-1H-pyrazol-4-yl)pyrazolo[5,1-b]thiazole-7-carboxamide], for which the half-inhibitory concentration (IC50) in assay [1] is 8.2 nM; against VEGFR2, unphosphorylated, more than 7500 nM.

In the case of `COc1ncccc1-c1cn2ncc(C(=O)Nc3cc(NC(=O)CN4CCCC4)cnc3C)c2s1` [Example 313, 2-(2-methoxypyridin-3-yl)-N-(2-methyl-5-(2-(pyrrolidin-1-yl)acetamido)pyridin-3-yl)pyrazolo[5,1-b]thiazole-7-carboxamide], the half-maximal inhibitory concentration (IC50) in assay [1] is 2.6 nM; against VEGFR2, unphosphorylated it was more than 7500 nM.

With `Cc1ncc(NC(=O)CN2CC(C)(C)C2)cc1NC(=O)c1cnn2cc(-c3cnn(CC4COC4)c3)sc12` [Example 263, N-(5-(2-(3,3-dimethylazetidin-1-yl)acetamido)-2-methylpyridin-3-yl)-2-(1-(oxetan-3-ylmethyl)-1H-pyrazol-4-yl)pyrazolo[5,1-b]thiazole-7-carboxamide], the half-inhibitory concentration (IC50) in assay [1] was 7.9 nM; against VEGFR2, unphosphorylated it was more than 7500 nM.

For the compound `Cc1ncc(NC(=O)CN(C)C2CCOCC2)cc1NC(=O)c1cnn2cc(-c3cnn(C(F)F)c3)sc12` [Example 295, 2-(1-(difluoromethyl)-1H-pyrazol-4-yl)-N-(2-methyl-5-(2-(methyl(tetrahydro-2H-pyran-4-yl)amino)acetamido)pyridin-3-yl)pyrazolo[5,1-b]thiazole-7-carboxamide], the IC50 was 13.5 nM in assay [1] and more than 7500 nM against VEGFR2, unphosphorylated.

Take `Cc1ncc(NC(=O)C[C@@H]2CCCCN2C(C)C)cc1NC(=O)c1cnn2cc(-c3cnn(C)c3)sc12` [Example 305, (S)—N-(5-(2-(1-isopropylpiperidin-2-yl)acetamido)-2-methylpyridin-3-yl)-2-(1-methyl-1H-pyrazol-4-yl)pyrazolo[5,1-b]thiazole-7-carboxamide]: the half-maximal inhibitory concentration (IC50) in assay [1] is 57.8 nM; against VEGFR2, unphosphorylated, more than 7500 nM.

Turning to `COCCn1cc(-c2cn3ncc(C(=O)Nc4cc(NC(=O)CN5CCCC5(C)C)cnc4C)c3s2)cn1` [Example 329, N-(5-(2-(2,2-dimethylpyrrolidin-1-yl)acetamido)-2-methylpyridin-3-yl)-2-(1-(2-methoxyethyl)-1H-pyrazol-4-yl)pyrazolo[5,1-b]thiazole-7-carboxamide], the IC50 in assay [1] is 5.6 nM; at VEGFR2, unphosphorylated it was more than 7500 nM.

Turning to `COc1ncccc1-c1cn2ncc(C(=O)Nc3cc(NC(=O)OCC(C)N4CCCC4)cnc3C)c2s1` (centres unmarked) [Example 255, 2-(pyrrolidin-1-yl)propyl (5-(2-(2-methoxypyridin-3-yl)pyrazolo[5,1-b]thiazole-7-carboxamido)-6-methylpyridin-3-yl)carbamate], the 50% inhibitory concentration (IC50) in assay [1] was 1.9 nM; on VEGFR2, unphosphorylated, more than 7500 nM.

In the case of `COc1ncccc1-c1cn2ncc(C(=O)Nc3cc(NC(=O)C4CCCCN4C(C)C)cnc3C)c2s1` (centres unmarked) [Example 315, N-(5-(1-isopropylpiperidine-2-carboxamido)-2-methylpyridin-3-yl)-2-(2-methoxypyridin-3-yl)pyrazolo[5,1-b]thiazole-7-carboxamide], the half-maximal inhibitory concentration (IC50) in assay [1] was 4.6 nM; on VEGFR2, unphosphorylated, 4990 nM.

For `COc1ncccc1-c1cn2ncc(C(=O)Nc3cc(NC(=O)CN4CCC5(CCOC5)C4)cnc3C)c2s1` (centres unmarked) [Example 320, N-(5-(2-(2-oxa-7-azaspiro[4.4]nonan-7-yl)acetamido)-2-methylpyridin-3-yl)-2-(2-methoxypyridin-3-yl)pyrazolo[5,1-b]thiazole-7-carboxamide], the concentration for half-maximal inhibition (IC50) in assay [1] was 1.4 nM; against VEGFR2, unphosphorylated, more than 7500 nM.

With `CNC(=O)c1cc(-c2cn3ncc(C(=O)Nc4cc(NC(=O)CN5CC(C)(C)C5)cnc4C)c3s2)ccn1` [Example 274, N-(5-(2-(3,3-dimethylazetidin-1-yl)acetamido)-2-methylpyridin-3-yl)-2-(2-(methylcarbamoyl)pyridin-4-yl)pyrazolo[5,1-b]thiazole-7-carboxamide], the half-inhibitory concentration (IC50) in assay [1] was 21.4 nM; against VEGFR2, unphosphorylated, more than 7500 nM.

Turning to `Cc1ncc(NC(=O)CN2CC(C)(C)C2)cc1NC(=O)c1cnn2cc(-c3cc[nH]c3)sc12` [Example 285, N-(5-(2-(3,3-dimethylazetidin-1-yl)acetamido)-2-methylpyridin-3-yl)-2-(1H-pyrrol-3-yl)pyrazolo[5,1-b]thiazole-7-carboxamide], the IC50 is 1.3 nM in assay [1] and more than 7500 nM on VEGFR2, unphosphorylated.

As for `Cc1ncc(NC(=O)CCN2CCCC2(C)C)cc1NC(=O)c1cnn2cc(-n3ncc4cccnc43)sc12` [Example 260, N-(5-(3-(2,2-dimethylpyrrolidin-1-yl)propanamido)-2-methylpyridin-3-yl)-2-(1H-pyrazolo[3,4-b]pyridin-1-yl)pyrazolo[5,1-b]thiazole-7-carboxamide], the IC50 in assay [1] was 2.1 nM; against VEGFR2, unphosphorylated, more than 7500 nM.

As to `COc1ncccc1-c1cn2ncc(C(=O)Nc3cc(NC(=O)CN4CCCC5(CC5)C4)cnc3C)c2s1` [Example 321, N-(5-(2-(5-azaspiro[2.5]octan-5-yl)acetamido)-2-methylpyridin-3-yl)-2-(2-methoxypyridin-3-yl)pyrazolo[5,1-b]thiazole-7-carboxamide], the concentration for half-maximal inhibition (IC50) in assay [1] was 1 nM; at VEGFR2, unphosphorylated it was more than 7500 nM.

As for `Cc1ncc(NC(=O)OC[C@@H]2CCCN2C)cc1NC(=O)c1cnn2cc(-c3cc[nH]c3)sc12` [Example 258, (S)-(1-methylpyrrolidin-2-yl)methyl (5-(2-(1H-pyrrol-3-yl)pyrazolo[5,1-b]thiazole-7-carboxamido)-6-methylpyridin-3-yl)carbamate], the IC50 is 4.2 nM in assay [1] and more than 7500 nM against VEGFR2, unphosphorylated.

Take `Cc1ncc(NC(=O)CN2CCC3(CCOC3)C2)cc1NC(=O)c1cnn2cc(-c3cnn(C)c3)sc12` (centres unmarked) [Example 19, N-(5-(2-(2-oxa-7-azaspiro[4.4]nonan-7-yl)acetamido)-2-methylpyridin-3-yl)-2-(1-methyl-1H-pyrazol-4-yl)pyrazolo[5,1-b]thiazole-7-carboxamide]: the IC50 in assay [1] is 4.2 nM; against VEGFR2, unphosphorylated, more than 7500 nM.

Take `Cc1ncc(NC(=O)OC[C@@H]2CCCN2C)cc1NC(=O)c1cnn2cc(-c3cccnc3O)sc12` [Example 256, (S)-(1-methylpyrrolidin-2-yl)methyl (5-(2-(2-hydroxypyridin-3-yl)pyrazolo[5,1-b]thiazole-7-carboxamido)-6-methylpyridin-3-yl)carbamate]: the IC50 in assay [1] is 14.9 nM; on VEGFR2, unphosphorylated, more than 7500 nM.

On to `Cc1ncc(NC(=O)CN2CC(C)(C)C2)cc1NC(=O)c1cnn2cc(-c3c[nH]c4ccccc34)sc12` [Example 287, N-(5-(2-(3,3-dimethylazetidin-1-yl)acetamido)-2-methylpyridin-3-yl)-2-(1H-indol-3-yl)pyrazolo[5,1-b]thiazole-7-carboxamide], for which the concentration for half-maximal inhibition (IC50) in assay [1] was 0.8 nM; against VEGFR2, unphosphorylated, 1740 nM.

With `Cc1ncc(NC(=O)CN2CC(C)(C)C2)cc1NC(=O)c1cnn2cc(-c3cnn(C4CCNCC4)c3)sc12` [Example 293, N-(5-(2-(3,3-dimethylazetidin-1-yl)acetamido)-2-methylpyridin-3-yl)-2-(1-(piperidin-4-yl)-1H-pyrazol-4-yl)pyrazolo[5,1-b]thiazole-7-carboxamide], the IC50 in assay [1] was 4.6 nM; on VEGFR2, unphosphorylated, more than 7500 nM.
